From US8299096B2, “Method for treating pulmonary diseases using rho kinase inhibitor compounds” (priority 2008, dated 2012)
Read-outs that look alike come from different tables or passages of the source.

What was measured:
[1] = system: ovalbumin-sensitized mice; experiment: Bronchodilator assay in ovalbumin-sensitized mouse model of asthma (Penh); type: in vivo; settings: for Reduction in airway hyperresponsivness: oral doses
Procedure: Male BALB/c mice were ordered from Charles River Laboratories (Raleigh, N.C.). The animals were approximately 19 to 21 grams at time of receipt. Upon arrival, the animals were randomized into groups of five males per cage and assigned to a dosing group. Animals were quarantined for 7 days under test conditions. They were observed daily for general health status and ability to adapt to the water bottles.
Animals were sensitized on day 0 and 14 of study by an intraperitoneal injection with 20 μg of ovalbumin (ova) and 2.0 mg aluminum hydroxide (alum) which initiates the development of a specific T-helper (Th) cells type 2 resulting in asthmatic animals. One group of animals received an injection of saline to use as non-asthmatic control animals. All animals were challenged with aerosolized 1% ova once daily for 25 minutes on days 28, 29, and 30 (Zosky, et al. Respiratory Research, 2004; 5:15). Aerosol challenge consists of using an Aerogen Aeroneb nebulizer and controller with a particle size of 4-6 μm mass median aerodynamic diameter (MMAD) with a distribution of 400 μl per minute. This aerosol challenge is necessary to target the Th2-driven allergic inflammation in the lower airways.
The test compounds and the control vehicle were administered to animals on the day of airway hyperreactivity evaluation 30 minutes to 1 hour before the evaluation to determine the bronchodilator effects of the compounds according to the bronchodilator dosing paradigm (FIG. 3A). Compounds were administered p.o. (orally), i.p. (intraperitoneally) at 15 μMol/kg unless otherwise noted (Table 4). Alternatively, compounds were administered i.t. (intratracheally) at varying doses as shown (FIG. 3B). On day 32 of the experiment, airway hyperreactivity was evaluated by placing conscious, unrestrained animals in a whole body plethysmometer (Buxco Wilmington, N.C.) and exposing them to escalating doses of nebulized methacholine, a known bronchial constrictor which acts through the muscarinic receptors of the lungs, (doses: […]-50 mg/ml). Exposure to the methacholine doses consisted of a 3 minute period during which a nebulizer was aerosolizing the methacholine and an additional 3 minute period following the cessation of nebulization. Over this 6 minute period, the plethysmometer monitors and generates numerical values for all parameters of the breath pattern. Enhanced pause (Penh), a unitless index of airway hyperreactivity, is derived from the expiratory side of the respiratory waveform measured via the plethysmograph and is used as an indirect measure of airway resistance and hyperreactivity. […] Following the methacholine dose response, all animals were anesthetized, bled and euthanized.
Within each experiment, a mouse was given a single compound and exposed to increasing doses of methacholine [0 (baseline), 0.375, 0.75, 1.5, 3, 6, 12, 25, 50 mg/ml]. The Penh value at each of the dose levels of methacholine represents the 6-minute average response. Change from baseline (CFB) in Penh was calculated at each methacholine dose and the area under the curve (AUC) for these CFB values was calculated using the trapezoidal rule. This same approach was applied for each mouse across multiple experiments.
For statistical analyses, a linear mixed-effects model where the response was the log 10 transformed value of AUC described above was used. Data from equal experimental conditions across experiments performed on different days were pooled for statistical analysis and data reporting. The various compounds were compared adjusting for the log 10-transformed baseline value of Penh and the chamber (1 of 10) of the plethysmometer each mouse was contained in during an experiment. A random intercept for each experiment was assumed to account for possible similarities of the results obtained from a given experiment (i.e., as a “blocking effect”).
For Table 4 and Table 5, Penh values are reported as log 10 transformed AUC values. […]

[2] = system: ovalbumin-sensitized mice; experiment: Prevention of airway hyperreactivity development, anti-inflammatory dosing paradigm (Penh); type: in vivo, mouse
[3] = Compound plasma concentrations in mice at 15 min post administration; type: in vivo, mouse; settings: for concentration at 15 min: mouse
Procedure: Additionally, compound concentrations were determined in the plasma and lungs of male, ovalbumin-sensitized, Balb/c mice from a murine model of asthma. Test compounds were formulated in water or 1% polysorbate 80 and dosed at 15 μmol/kg for intraperitoneal (IP) or oral (PO) administration or formulated for intratracheal (IT) administration and dosed at 5 μmol/kg, which directly targets the lungs. Following completion of the in vivo study, mice were euthanized and blood and plasma collected approximately 2.5-3 hours post administration of test compound for bronchodialator (BD) studies and 24 hours post administration for anti-inflamatory (AI) studies. Lungs were homogenized in Matrix A lysing tubes using a FastPrep 24 tissue and cell homogenizer (MP Biomedicals, Solon, Ohio). Both plasma samples and lung extracts were assayed for compound concentrations using an on-line, solid phase extraction LC/MS/MS system.

[4] = system: ovalbumin-sensitized mice; experiment: Anti-inflammatory assay in ovalbumin-sensitized mouse model of asthma (BALF cells and cytokines); type: in vivo; settings: dosed orally to day 31, anti-inflammatory dosing paradigm
Excerpt: Mouse model of asthma via ovalbumin sensitization was created as described in Example 5. The anti-inflammatory dosing paradigm (FIG. 4) was utilized to evaluate the anti-inflammatory effects of experimental compounds. The anti-inflammatory dosing paradigm consists of dosing the animals once a day starting on day 27 and finishing on either day 30 or 31 (1 hr prior to the aerosolized ovalbumin challenges on days 28 to 30) but not on day 32 when hyper-reactivity evaluation occurs.
Bronchoalveolar lavage fluid (BALF) was collected by infusing 3.0 ml of saline with 10% fetal calf serum into the lungs via the trachea and then withdrawing the fluid. The total amount of cells/ml of BALF fluid was determined via manual cell count on hemocytometer. The BALF was centrifuged, supernatant removed and analyzed for cytokine concentrations as described below, and cell pellet reconstituted in 500 μL of fluid. Cytospin slides were prepared from the cell pellet using 100 μL of fluid and spinning samples for 5 minutes at 5000 rpms in a cytospin centrifuge. Following Hema3 stain, relative percentages of individual leukocytes were determined on a 200 cell count for each sample. The final concentration of individual leukocyte cell types per ml of BALF was determined by multiplication of the relative percentage of individual leukocytes with the total amount of cells/ml of BALF fluid.
The concentrations of cytokines in the BALF samples were determined using commercially available Bio-plex kits (Bio-Rad) for the detection of mouse IL-5, IL-13, and Eotaxin. The analysis of cytokine levels was measured using the Bio-Plex 200 (Bio-Rad) system according to the manufacturer's instructions.

[5] = system: rat tracheal rings; experiment: Tracheal relaxation assay, carbachol precontracted rings
Procedure: Trachea were excised, cleaned of connective tissue and cut into cylindrical segments of 2-3 mm length. Two stainless steel wires were guided through the lumen of the tracheal ring. One wire was fixed in the tissue bath and the other was connected to a force transducer via surgical silk. […] Indomethacin (1 μM), a cyclooxygenase inhibitor, was added to the Krebs buffer and was present throughout the experiments. Contractile tensions were measured using an isometric force transducer (Grass Instruments) and signals were analyzed using specialized software (Chart v5.5, ADInstruments). The preparations were allowed to equilibrate at a resting tension of 0.3 to 0.5 gm prior to two challenges with 60 mM KCl to assess tissue viability. After washing, tissues were treated with 1 μM carbachol for 10 to 15 minutes to induce a contractile response. Test Compounds were added cumulatively to the bath every 30 minutes and reductions in tension were recorded. Basal tension was subtracted from all values and data were reported as a percentage of the maximal carbachol-induced contraction. Data were fit to the Hill equation using GraphPad Prism v5 software.

[6] = Rat oral pharmacokinetics (plasma); type: in vivo
Procedure: Plasma (EDTA K2 anticoagulant) was collected from male, cannulated, CD Sprague Dawley rats to determine the pharmacokinetics of formulations containing compound inhibitors of Rho kinase. Each animal was dosed orally with a 4 ml/kg solution or suspension of each test compound in 10 mM acetate buffered saline, pH 4.5 at a final concentration range of 20-30 μmol/kg. Blood was collected at 0.25, 0.5, 1, 2, 4, 6, 8, and 24 hours. Plasma samples were assayed for the concentration of the test compound using an on-line, solid phase extraction LC/MS/MS analysis system.
Samples were analyzed on a QSTAR Elite, hybrid quadrupole time-of-flight mass spectrometer (Applied Biosystems, Framingham, Mass.) coupled with a Symbiosis Pharma integrated, on-line SPE-HPLC system (Spark Holland Inc., Plainsboro, N.J.). Analyst QS 2.0 software was used for instrument control, data acquisition and processing. […] Mobile Phase A consisted of 0.1% ammonium hydroxide in water and Mobile Phase B consisted of 0.1% formic acid in acetonitrile. Pharmacokinetic analyses were performed using WinNonlin software version 5.2 (Pharsight Corporation, Mountain View, Calif.).

[7] = target: T1, Mnk2 (Homo sapiens, UniProt Q9HBH9); experiment: Kinase panel screen, Mnk2; type: biochemical; settings: 10 μM ATP
T1 construct: purchased Upstate, Millipore Bioscience Division (KinaseProfiler service)
T1 sequence (Q9HBH9 whole entry): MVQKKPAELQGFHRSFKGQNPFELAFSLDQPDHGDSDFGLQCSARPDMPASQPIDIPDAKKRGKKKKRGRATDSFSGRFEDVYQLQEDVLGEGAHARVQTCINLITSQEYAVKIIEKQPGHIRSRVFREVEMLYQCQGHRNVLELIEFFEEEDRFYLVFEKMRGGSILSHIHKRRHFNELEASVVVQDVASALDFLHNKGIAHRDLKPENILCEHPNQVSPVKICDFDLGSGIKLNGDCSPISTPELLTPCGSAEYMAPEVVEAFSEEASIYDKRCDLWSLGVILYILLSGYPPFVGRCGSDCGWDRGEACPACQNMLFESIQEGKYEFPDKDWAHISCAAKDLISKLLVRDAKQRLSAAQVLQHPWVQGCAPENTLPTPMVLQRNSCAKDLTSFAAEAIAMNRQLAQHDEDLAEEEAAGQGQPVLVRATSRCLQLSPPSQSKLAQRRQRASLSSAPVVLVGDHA
Procedure: (§1) Compounds of Formulae I and II were examined for activity against a selected panel of kinases using the KinaseProfiler™ enzyme profiling services (Upstate, Millipore Bioscience Division). Percent kinase activity at 10 μM and 1 μM test compound and 10 μM ATP was determined against 40 wild-type recombinant human kinases according to Upstate's standard protocol: ASK1, BTK, CSK, c-RAF, GCK, GSK3β, IKKα, IKKβ, IRAK1, IRAK4, JNK1α1, JNK2α2, JNK3, ERK1, ERK2, MAPKAP-K2, MAPKAP-K3, MEK1, MKK4, MKK6, MKK7β, Mnk2, MSK1, PAK3, PDK1, PRAK, ROCK1, Rsk2, SAPK2a, SAPK2b, SAPK3, SAPK4, SRPK1, SRPK2, Syk, TAK1, TBK1, PI3-Kβ, PI3-Kγ, PI3-Kδ.

[8] = target: T2, GCK (Homo sapiens, UniProt Q12851); experiment: Kinase panel screen, GCK; type: biochemical; settings: 1 μM test compound, 10 μM ATP
T2 construct: purchased Upstate, Millipore Bioscience Division (KinaseProfiler service)
T2 sequence (Q12851 1-820): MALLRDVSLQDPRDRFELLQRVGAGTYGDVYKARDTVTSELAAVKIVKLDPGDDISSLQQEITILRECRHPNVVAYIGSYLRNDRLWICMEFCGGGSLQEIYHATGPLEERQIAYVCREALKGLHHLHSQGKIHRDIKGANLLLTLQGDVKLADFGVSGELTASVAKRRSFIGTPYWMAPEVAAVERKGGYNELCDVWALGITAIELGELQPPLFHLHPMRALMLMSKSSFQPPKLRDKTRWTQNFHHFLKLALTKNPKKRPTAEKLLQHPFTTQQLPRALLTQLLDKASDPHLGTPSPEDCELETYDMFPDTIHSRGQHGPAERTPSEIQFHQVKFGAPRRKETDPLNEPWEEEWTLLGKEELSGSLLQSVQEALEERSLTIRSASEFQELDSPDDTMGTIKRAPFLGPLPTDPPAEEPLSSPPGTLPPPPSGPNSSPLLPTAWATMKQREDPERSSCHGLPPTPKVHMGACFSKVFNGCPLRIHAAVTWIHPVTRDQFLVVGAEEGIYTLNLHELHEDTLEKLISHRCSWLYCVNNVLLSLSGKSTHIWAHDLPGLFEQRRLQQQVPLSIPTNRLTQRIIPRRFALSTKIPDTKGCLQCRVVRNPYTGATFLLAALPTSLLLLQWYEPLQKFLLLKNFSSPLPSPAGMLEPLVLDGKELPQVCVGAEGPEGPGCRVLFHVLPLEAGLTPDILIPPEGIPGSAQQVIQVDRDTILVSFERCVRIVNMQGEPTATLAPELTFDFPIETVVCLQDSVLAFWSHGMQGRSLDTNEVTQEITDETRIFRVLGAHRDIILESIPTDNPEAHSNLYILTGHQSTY
Procedure: as §1

[9] = target: T3, IRAK1 (Homo sapiens, UniProt P51617); experiment: Kinase panel screen, IRAK1; type: biochemical; settings: 10 μM ATP
T3 construct: purchased Upstate, Millipore Bioscience Division (KinaseProfiler service)
T3 sequence (P51617 whole entry): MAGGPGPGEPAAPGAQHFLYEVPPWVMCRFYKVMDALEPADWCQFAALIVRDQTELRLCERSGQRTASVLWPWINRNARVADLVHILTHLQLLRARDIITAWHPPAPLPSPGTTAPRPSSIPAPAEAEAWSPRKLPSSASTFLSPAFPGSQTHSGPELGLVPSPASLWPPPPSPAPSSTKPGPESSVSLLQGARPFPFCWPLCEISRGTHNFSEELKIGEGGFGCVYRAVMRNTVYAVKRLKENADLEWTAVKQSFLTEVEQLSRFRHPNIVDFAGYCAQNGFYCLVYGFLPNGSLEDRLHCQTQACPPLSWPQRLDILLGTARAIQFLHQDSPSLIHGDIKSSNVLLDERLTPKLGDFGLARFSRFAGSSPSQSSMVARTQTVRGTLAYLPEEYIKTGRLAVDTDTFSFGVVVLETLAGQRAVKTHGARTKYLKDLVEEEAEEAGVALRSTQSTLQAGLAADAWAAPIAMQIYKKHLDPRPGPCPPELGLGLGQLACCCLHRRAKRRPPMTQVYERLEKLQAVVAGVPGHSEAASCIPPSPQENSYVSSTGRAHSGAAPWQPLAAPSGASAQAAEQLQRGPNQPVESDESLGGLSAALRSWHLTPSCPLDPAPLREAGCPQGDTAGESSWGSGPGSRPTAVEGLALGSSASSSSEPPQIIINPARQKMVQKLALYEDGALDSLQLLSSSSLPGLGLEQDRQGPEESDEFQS
Procedure: as §1

[10] = target: T4, IRAK4 (Homo sapiens, UniProt Q9NWZ3); experiment: Kinase panel screen, IRAK4; type: biochemical; settings: 10 μM ATP
T4 construct: purchased Upstate, Millipore Bioscience Division (KinaseProfiler service)
T4 sequence (Q9NWZ3 1-460): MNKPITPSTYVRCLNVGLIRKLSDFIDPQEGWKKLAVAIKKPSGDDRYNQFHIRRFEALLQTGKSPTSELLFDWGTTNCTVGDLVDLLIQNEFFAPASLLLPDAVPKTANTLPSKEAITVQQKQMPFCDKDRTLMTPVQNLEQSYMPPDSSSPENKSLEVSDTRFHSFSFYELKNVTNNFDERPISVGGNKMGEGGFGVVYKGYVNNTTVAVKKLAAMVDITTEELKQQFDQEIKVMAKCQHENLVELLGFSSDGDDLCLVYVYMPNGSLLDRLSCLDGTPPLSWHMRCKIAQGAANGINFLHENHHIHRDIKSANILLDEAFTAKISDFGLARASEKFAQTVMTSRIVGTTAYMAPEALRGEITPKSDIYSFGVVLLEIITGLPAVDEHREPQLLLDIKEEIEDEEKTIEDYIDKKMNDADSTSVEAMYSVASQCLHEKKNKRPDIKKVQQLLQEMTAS
Procedure: as §1

[11] = target: T5, p70S6K (Homo sapiens, UniProt P23443, T412E); experiment: p70S6K inhibition assay (IMAP); type: biochemical
T5 construct: purchased Upstate Chemicon 14-486
T5 sequence (P23443 1-421 T412E limits assumed): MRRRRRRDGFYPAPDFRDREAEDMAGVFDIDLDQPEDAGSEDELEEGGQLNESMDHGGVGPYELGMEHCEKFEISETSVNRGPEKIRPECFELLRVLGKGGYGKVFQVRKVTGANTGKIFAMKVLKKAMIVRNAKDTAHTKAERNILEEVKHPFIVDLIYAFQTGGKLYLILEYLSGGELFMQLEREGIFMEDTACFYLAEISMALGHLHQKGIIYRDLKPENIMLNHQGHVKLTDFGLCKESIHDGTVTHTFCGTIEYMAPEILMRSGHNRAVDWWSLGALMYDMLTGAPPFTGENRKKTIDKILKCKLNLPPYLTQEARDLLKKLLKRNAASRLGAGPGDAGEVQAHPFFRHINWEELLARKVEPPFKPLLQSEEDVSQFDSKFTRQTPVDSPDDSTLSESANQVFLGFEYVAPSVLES
Procedure: Inhibition of Akt3 and p70S6K activity was determined using the IMAP™ FP Progressive Binding Kit (Molecular Devices product number R8127). […] Following the pre-incubation, 30 M ATP was added to initiate the reaction. After 60 minutes at RT, Molecular Devices IMAP™ binding solution was added to bind phosphorylated substrate. After 30 minutes of incubation in the presence of the IMAP™ beads the fluorescence polarization was read and the ratio was reported as mP. IC50 results were calculated using the Prism software from Graphpad. The Ki values were determined according to the following formula: Ki=IC50/(1+([ATP Challenge]/EC50 ATP)).

[12] = target: T6, ROCK1 (Homo sapiens, UniProt Q13464); experiment: Rho kinase inhibition assay (IMAP), ROCK1; type: biochemical
T6 construct: purchased Upstate/Chemicon 14-601
T6 sequence (Q13464 17-535 limits assumed): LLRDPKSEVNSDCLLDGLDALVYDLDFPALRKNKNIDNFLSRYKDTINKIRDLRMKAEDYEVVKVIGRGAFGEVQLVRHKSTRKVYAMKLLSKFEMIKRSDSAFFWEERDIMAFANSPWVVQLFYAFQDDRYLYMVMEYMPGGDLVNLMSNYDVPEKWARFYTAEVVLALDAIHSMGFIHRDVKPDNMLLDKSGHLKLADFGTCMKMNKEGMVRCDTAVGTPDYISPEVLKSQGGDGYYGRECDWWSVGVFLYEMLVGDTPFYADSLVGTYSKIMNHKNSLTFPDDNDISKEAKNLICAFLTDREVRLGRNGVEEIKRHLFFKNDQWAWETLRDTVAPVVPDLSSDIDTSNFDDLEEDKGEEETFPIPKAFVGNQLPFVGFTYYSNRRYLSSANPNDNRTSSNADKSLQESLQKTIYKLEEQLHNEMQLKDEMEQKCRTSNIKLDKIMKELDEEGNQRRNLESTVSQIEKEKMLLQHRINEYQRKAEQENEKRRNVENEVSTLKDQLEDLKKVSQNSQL
Procedure: Following the pre-incubation, 10 μM ATP was added to initiate the reaction. After 60 minutes at room temperature, Molecular Devices IMAP™ binding solution was added to bind phosphorylated substrate. After 30 minutes of incubation in the presence of the IMAP™ beads, the fluorescence polarization was read and the ratio was reported as mP. IC50 values for compounds and EC50 values for ATP were calculated using the Prism software from Graphpad.

[13] = rat, oral, 20-30 μmol/kg, plasma, mean n = 3
[14] = IMAP FP, human enzyme, Ki=IC50/(1+([ATP Challenge]/EC50 ATP)), read-out: p70S6K Ki, Avg
[15] = average Ki (Example 31), read-out: p70S6K Ki
[16] = Balb/c, 15 μmol/kg, mean compound plasma concentration in mice at 15 minutes post oral administration, read-out: Mouse Oral PK
[17] = mice, plasma, 15 min post administration (oral dosing), mean of n = 3 mice, read-out: Plasma Mean Concentration
[18] = read-out: ROCK1 Ki, average Ki (Example 1)

c1cc2cc(CN3CCC[C@@H](Nc4ccc5[nH]ncc5c4)C3)ccc2o1 [Compound 1.131]
Reduction in airway hyperresponsivness [1]: statistically significant reduction | Prevention of airway hyperreactivity to metacholine on Day 32 ([2]; oral, 15 μMol/kg once a day during days 27 to 31): prevention of airway hyperreactivity | Detection in mouse plasma 15 minutes after oral dosing ([3]; mouse plasma, 15 minutes, oral): readily detectable | Airway eosinophil infiltration (eosinophils per ml of BALF) [4]: reduced

CCc1ccc(CN2CCC[C@@H](Nc3ccc4[nH]ncc4c3)C2)cc1 [Compound 1.136]
Trachael Ring Contraction ([5]; average percentage of carbachol-induced rat trachael ring contraction at 1 μM of test compound): 45% | Oral bioavailability ([6]; oral dosing): poor | AUC (0-last) [6, 13]: below the level of quantification | Cmax [6, 13]: below the level of quantification | Reduction in airway hyperresponsiveness ([1]; i.p. route of administration, compared to oral dosing): enhanced reduction | Reduction in airway hyperresponsivness [1]: did not yield a significant reduction

NC(=O)Cn1ccc2cc(CN3CCC[C@@H](Nc4ccc5[nH]ncc5c4)C3)ccc21 [Compound 1.162]
Percent inhibition, Mnk2 ([7]; 1 μM test compound): 111% | Percent inhibition, Mnk2 ([7]; 10 μM test compound): 65% | percent inhibition at 1 µM [8]: 93% | Percent inhibition, IRAK1 ([9]; 1 μM test compound): 100% | Percent inhibition, IRAK1 ([9]; 10 μM test compound): 97% | Percent inhibition, IRAK4 ([10]; 1 μM test compound): 105% | Percent inhibition, IRAK4 ([10]; 10 μM test compound): 88%

Cc1ccc(CN2CCC[C@H](Nc3ccc4[nH]ncc4c3)C2)cc1NS(=O)(=O)N(C)C [Compound 1.237]
Ki [11, 14]: 9870 nM | Ki [11, 15]: 9870 nM | concentration at 15 min [3, 16]: 178 nM | concentration at 15 min [3, 17]: 178 nM | Ki [12]: 287 nM | Ki [12, 18]: 287 nM

Cc1ccc(CN2CCC[C@@H](Nc3ccc4[nH]ncc4c3)C2)cc1NS(=O)(=O)N(C)C [Compound 1.262]
Ki [11, 14]: 5440 nM | Ki [11, 15]: 5440 nM | concentration at 15 min [3, 16]: 285 nM | concentration at 15 min [3, 17]: 285 nM | Ki [12]: 54.9 nM | Ki [12, 18]: 54.9 nM

OCCn1ccc2cc(CN3CC[C@@H](Nc4cccc5cnccc45)C3)ccc21 [Compound 2.066]
Percent inhibition, Mnk2 ([7]; 1 μM test compound): 99% | Percent inhibition, Mnk2 ([7]; 10 μM test compound): 54% | percent inhibition at 1 µM [8]: 39% | Percent inhibition, IRAK1 ([9]; 1 μM test compound): 74% | Percent inhibition, IRAK1 ([9]; 10 μM test compound): 32% | Prevention of airway hyperreactivity ([2]; intratracheal, once a day, days 27 to 30 (1.091) or 27 to 31): prevention of airway hyperreactivity

O=S(=O)(c1cccc2cnccc12)N1CCCNCC1 [fasudil]
Percentage of carbachol-induced contraction at 10 μM compound, Avg % ([5]; 10 μM compound, 1 μM carbachol precontracted rat trachea rings): least efficacious | IC50, tracheal ring relaxation ([5]; carbachol precontracted tissue): could not be obtained
